Results reported in publication PMC3724849 (PLoS ONE, 2013).
“And” between values parts separate entries of the source, which are not always exact repeats. Equal entries are not always repeated.

Assays:
[1] = tested on: CA1 pyramidal neurons of organotypic hippocampal brain slices; assay: Patch clamp of synaptic transmission in organotypic hippocampal slices; assay type: cell-based, rat
[2] = tested on: CA1 neurons of organotypic hippocampal brain slices; assay: Current-clamp intrinsic excitability in organotypic hippocampal slices; assay type: cell-based, rat; conditions: SAHA vs vehicle treated slices; p>0.05
Method: (§1) Interface cultures of hippocampal slices were made from 7–8 day old Sprague Dawley rats as previously described. Briefly, hippocampi were dissected in minimum essential medium (MEM; Invitrogen, Eugene, OR) with 15 mm HEPES and 10 mm Tris buffer (Invitrogen). Four-hundred micrometer slices were cultured on Millicell CM culture plate inserts (Millipore, Temecula, CA). The culture medium consisted of 50% MEM, 25% HBSS, and 25% horse serum, with 12.5 mM HEPES buffer and penicillin (100 U/ml)/streptomycin (100 µg/ml) (all from Invitrogen). Cultures were maintained in 5% CO2, at 37°C. Slices were maintained in vitro for one week prior to transfection.
Patch clamp recordings were made in oxygenated Artificial Cerebrospinal Fluid (ACSF) containing (in mM) 127 NaCl, 2.5 KCl, 1.3 MgSO4, 2.5 CaCl2, 1.25 Na2HPO4, 25 NaHCO3, 25 glucose. For voltage-clamp recordings patch pipette internal solution consisted of 120 Cs-methanesulfonate, 20 CsCl, 0.5 EGTA, 10 HEPES, 2.5 MgCl2, 4 Na2ATP, 0.3 NA3GTP, 10 Phosphocreatine, and 5 mM QX-314 Br. Miniature excitatory postsynaptic currents (mEPSCs) were recorded in the presence of 100 µM Picrotoxin (PTX) and 1 µM tetrodotoxin (TTX) at a holding potential of −70 mV. Miniature inhibitory postsynaptic currents (mIPSCs) were recorded in the presence of 10 µM 2,3-Dioxo-6-nitro-1,2,3,4-tetrahydrobenzo[f]quinoxaline-7-sulfonamide (NBQX), 50 µM D-(−)-2-Amino-5-phosphonopentanoic acid (D-AP5) and 1 µM TTX at a holding potential of 0 mV. Significance of differences between mean frequencies or amplitudes of mEPSCs or mIPSCs were assessed using a student’s t-test. […]. For experiments measuring open NMDAR block synaptic inputs were stimulated locally using a bipolar stimulation electrode and NMDAR EPSCs were isolated using NBQX and PTX and measured at −70 mV with external MgCl2 lowered to 0.5 mM. […] For synaptic plasticity experiments synaptic inputs were stimulated locally using a bipolar stimulation electrode and EPSCs were measured at −70 mV. […] Significance of differences in normalized EPSC amplitudes between treatment groups following plasticity induction were assessed using a student’s t-test. […] Action potential threshold was measured during the smallest depolarizing current injection steps that triggered spiking. Input resistance was calculated from the steady-state response to the smallest hyperpolarizing current injection steps to avoid contamination from hyperpolarization-induced inward currents (h-current). The h-current “sag” was measured based on the difference between the maximal and steady-state voltage responses to strong hyperpolarizing current injection steps. Significance of differences in all measures between treatment groups were assessed using a student’s t-test.

[3] = tested on: excitatory synapses in CA1 of organotypic hippocampal brain slices; assay: Synaptic plasticity (LTP, LTD) in organotypic hippocampal slices; assay type: cell-based, rat; conditions: p<0.05
Method: as §1
Patch clamp recordings were made in oxygenated Artificial Cerebrospinal Fluid (ACSF) containing (in mM) 127 NaCl, 2.5 KCl, 1.3 MgSO4, 2.5 CaCl2, 1.25 Na2HPO4, 25 NaHCO3, 25 glucose. For voltage-clamp recordings patch pipette internal solution consisted of 120 Cs-methanesulfonate, 20 CsCl, 0.5 EGTA, 10 HEPES, 2.5 MgCl2, 4 Na2ATP, 0.3 NA3GTP, 10 Phosphocreatine, and 5 mM QX-314 Br. Miniature excitatory postsynaptic currents (mEPSCs) were recorded in the presence of 100 µM Picrotoxin (PTX) and 1 µM tetrodotoxin (TTX) at a holding potential of −70 mV. […] Significance of differences between mean frequencies or amplitudes of mEPSCs or mIPSCs were assessed using a student’s t-test. […]

[4] = tested on: Tg2576 mice; assay: Tg2576 fear conditioning; assay type: in vivo, mouse; conditions: 25 mg/kg or 50 mg/kg SAHA i.p. daily vs vehicle; p>0.05
[5] = tested on: Tg2576 mice; assay: Open field test in Tg2576 mice; assay type: in vivo, mouse; conditions: dosing day 32, 30 minutes, mean ±SEM
[6] = Protein binding in plasma and brain; assay type: in vitro ADME
[7] = tested on: C57BL/6 mice; assay: SmartCube high-content behavioral phenotyping; assay type: in vivo, mouse; conditions: for discrimination index: p<0.001
Method: SmartCube experiments were conducted at Psychogenics, Inc (Tarrytown, NY). […] The SmartCube® system can measure numerous spontaneous behaviors and responses to challenges in the same testing environment. The hardware includes force sensors and a number of aversive stimuli used to elicit behavior. Three high-resolution video cameras provide constant 3D view of the mouse in the SmartCube® apparatus throughout the testing period. Digital videos of the subjects were processed with computer vision algorithms to extract over 2,000 independent measures including frequency and duration of behavioral states such as grooming, rearing, etc., and many other features obtained during the test session. […] The database comprises 14 classes of drugs with some of the major classes, such as the antidepressant class, comprising several subclasses with representatives of most of the drugs in the market.

[8] = Pharmacokinetic study after single i.p. injection
[9] = 0.5 µM SAHA for 3–4 days vs vehicle, p>0.05
[10] = single injection, valproate 225 mg/kg

O=C(CCCCCCC(=O)Nc1ccccc1)NO [SAHA, Suberoylanilide hydroxamic acid]
median amplitude of mEPSCs ([1]; 0.5 µM SAHA for 3–4 days vs vehicle, p<0.05): significantly increased | amplitude of mIPSCs [1, 9]: did not significantly alter | frequency of mIPSCs [1, 9]: did not significantly alter | mEPSC frequency (median interval between events) [1, 9]: no significant change | rate of NMDAR EPSC blockade by MK-801 ([1]; repetitive stimulation, SAHA vs vehicle treated slices, p>0.05): not different | action potential threshold [2]: unaltered | input resistance [2]: unaltered | membrane sag (hyperpolarization-induced inward current) [2]: unaltered | number of action potentials elicited by 500 ms current injection pulses [2]: no difference | LTP induction ([3]; induction protocol subthreshold in vehicle treated slices): readily evoked LTP | LTD induction ([3]; protocol that readily induced LTD in vehicle treated slices): could not produce LTD | percentage of time freezing in response to the context, altered context, or cue [4]: no effect of treatment | percentage of time spent freezing during conditioning [4]: no effect of treatment | total distance traveled in the open field test ([5]; 25 mg/kg i.p. daily): 39.6±6.1 m | total distance traveled in the open field test ([5]; 50 mg/kg i.p. daily): 34.2±5.2 m | bound to protein, brain ([6]; brain): 87.0% | bound to protein, plasma ([6]; plasma): 40.7% | behavioral activity ([7]; daily for 14 days, higher dose of SAHA (150 mg/kg)): not behaviorally active | drug class activity signature ([7]; daily for 14 days, lower dose of SAHA (50 mg/kg)): not consistent with any known therapeutic signal | behavioral activity ([7]; single injection of 50 mg/kg or 150 mg/kg SAHA): behaviorally inactive | AUClast of free SAHA in the brain ([8]; 50 mg/kg i.p.): 0.07 µM·h | Cmax of free SAHA in the brain ([8]; 50 mg/kg i.p.): 110 ± 20 nM and 110 nM | AUClast of free SAHA in the brain ([8]; 150 mg/kg i.p.): 0.36 µM·h | Cmax of free SAHA in the brain ([8]; 150 mg/kg i.p.): 100 ± 10 nM

CCCC(CCC)C(=O)O [valproate]
drug class activity signature ([7]; daily for 14 days, valproate): predominantly anxiolytic signature | discrimination index ([7]; daily for 14 days, valproate): 98% | drug class activity signature [7, 10]: strong anxiolytic signature and a mild psychostimulant signature | discrimination index [7, 10]: 100%
